Laboratory results reported in the supplement of paper PMC10307832.

Assays:
Experiment in all cases: relative viability (nuclei count vs DMSO), 5 days (fraction); higher = more cells survive
KIN001-266 + Alpelisib = compound: CCN1CCC(CC1)N2C=C(N=N2)CNC3=CC4=C(C(=CN=C4C(=C3)Cl)C#N)NC5=CC(=C(C=C5)F)Cl [KIN001-266] + Cc1nc(NC(=O)N2CCC[C@H]2C(N)=O)sc1-c1ccnc(C(C)(C)C(F)(F)F)c1 [Alpelisib] (partner 2 µM)
In short: (§1)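 Lung cancer cell lines in 1536-well plates got either a single drug or a fixed anchor-drug dose together with five library-drug doses (not always all listed) in √10 steps, by pin tool, on the day after seeding. Nuclei were counted after 5 days, and relative viability is the treated-to-vehicle ratio of nuclei counts. Values are medians of duplicate plates.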

KIN001-266 + Pictilisib = compound: CCN1CCC(CC1)N2C=C(N=N2)CNC3=CC4=C(C(=CN=C4C(=C3)Cl)C#N)NC5=CC(=C(C=C5)F)Cl [KIN001-266] + CS(=O)(=O)N1CCN(Cc2cc3nc(-c4cccc5[nH]ncc45)nc(N4CCOCC4)c3s2)CC1 [Pictilisib] (partner 1 µM)
In short: as §1

KIN001-266 + Decitabine = compound: CCN1CCC(CC1)N2C=C(N=N2)CNC3=CC4=C(C(=CN=C4C(=C3)Cl)C#N)NC5=CC(=C(C=C5)F)Cl [KIN001-266] + Nc1ncn([C@H]2C[C@H](O)[C@@H](CO)O2)c(=O)n1 [Decitabine] (partner 2 µM)
In short: as §1

KIN001-266 + Linsitinib = compound: CCN1CCC(CC1)N2C=C(N=N2)CNC3=CC4=C(C(=CN=C4C(=C3)Cl)C#N)NC5=CC(=C(C=C5)F)Cl [KIN001-266] + C[C@]1(O)C[C@@H](c2nc(-c3ccc4ccc(-c5ccccc5)nc4c3)c3c(N)nccn32)C1 [Linsitinib] (partner 1 µM)
In short: as §1

| Cell Line | relative viability (KIN001-266 + Alpelisib; first compound 0.08 µM) | relative viability (KIN001-266 + Alpelisib; first compound 0.253 µM) | relative viability (KIN001-266 + Alpelisib; first compound 0.8 µM) | relative viability (KIN001-266 + Alpelisib; first compound 2.53 µM) | relative viability (KIN001-266 + Alpelisib; first compound 8 µM) | relative viability (KIN001-266 + Pictilisib; first compound 0.08 µM) | relative viability (KIN001-266 + Pictilisib; first compound 0.253 µM) | relative viability (KIN001-266 + Pictilisib; first compound 0.8 µM) | relative viability (KIN001-266 + Pictilisib; first compound 2.53 µM) | relative viability (KIN001-266 + Pictilisib; first compound 8 µM) | relative viability (KIN001-266 + Decitabine; first compound 0.08 µM) | relative viability (KIN001-266 + Decitabine; first compound 0.253 µM) | relative viability (KIN001-266 + Decitabine; first compound 0.8 µM) | relative viability (KIN001-266 + Decitabine; first compound 2.53 µM) | relative viability (KIN001-266 + Decitabine; first compound 8 µM) | relative viability (KIN001-266 + Linsitinib; first compound 0.08 µM) | relative viability (KIN001-266 + Linsitinib; first compound 0.253 µM) | relative viability (KIN001-266 + Linsitinib; first compound 0.8 µM) | relative viability (KIN001-266 + Linsitinib; first compound 2.53 µM) | relative viability (KIN001-266 + Linsitinib; first compound 8 µM) |
| --- | --- | --- | --- | --- | --- | --- | --- | --- | --- | --- | --- | --- | --- | --- | --- | --- | --- | --- | --- | --- |
| NCI-H661 | 0.95 | 0.753 | 0.721 | 0.557 | 0.591 | 0.43 | 0.412 | 0.433 | 0.363 | 0.568 | 0.628 | 0.554 | 0.506 | 0.509 | 0.504 | 0.551 | 0.514 | 0.537 | 0.515 | 0.425 |
| NCI-H1993 | 0.664 | 0.682 | 0.692 | 0.642 | 0.634 | 0.872 | 0.691 | 0.967 | 0.837 | 0.976 | 0.66 | 0.563 | 0.415 | 0.579 | 0.607 | 0.714 | 0.657 | 0.828 | 0.687 | 0.797 |
| NCI-H1437 | 0.997 | 1.06 | 0.961 | 0.858 | 0.495 | 0.357 | 0.464 | 0.413 | 0.359 | 0.177 | 0.564 | 0.542 | 0.556 | 0.504 | 0.567 | 1.07 | 1 | 1.03 | 1.03 | 0.583 |
| UMC-11 | 0.927 | 0.931 | 1.11 | 0.952 | 0.604 | 0.808 | 0.841 | 0.827 | 0.5 | 0.677 | 0.646 | 0.576 | 0.698 | 0.66 | 0.603 | 0.944 | 1.01 | 1.08 | 0.981 | 1.09 |
| 201T | 1.03 | 1 | 1.02 | 1.05 | 1.01 | 0.768 | 0.746 | 0.662 | 0.64 | 0.721 | 0.848 | 0.885 | 0.868 | 0.78 | 0.842 | 1.08 | 1.04 | 0.984 | 1.01 | 1.15 |
| NCI-H358 | 0.825 | 0.774 | 0.981 | 0.831 | 0.43 | 0.382 | 0.355 | 0.343 | 0.3 | 0.316 | 0.209 | 0.219 | 0.197 | 0.212 | 0.173 | 0.695 | 0.628 | 0.821 | 0.667 | 0.33 |
| LOU-NH91 | 0.735 | 0.724 | 0.501 | 0.676 | 0.588 | 0.542 | 0.533 | 0.443 | 0.469 | 0.505 | 0.796 | 0.82 | 0.728 | 0.767 | 0.701 | 0.968 | 0.952 | 0.652 | 0.896 | 0.73 |
| HOP-62 | 1.09 | 1.21 | 0.967 | 1.02 | 0.84 | 0.592 | 0.813 | 0.728 | 0.372 | 0.506 | 0.224 | 0.215 | 0.287 | 0.204 | 0.217 | 0.961 | 1.01 | 1.09 | 0.945 | 0.439 |
| NCI-H1915 | 1.05 | 1.06 | 1.01 | 1.04 | 0.97 | 1.03 | 0.949 | 0.947 | 1.05 | 0.781 | 0.28 | 0.287 | 0.249 | 0.265 | 0.278 | 1.1 | 1.1 | 1.1 | 1.06 | 0.998 |
| NCI-H3122 | 0.841 | 0.909 | 0.699 | 0.728 | 0.767 | 0.573 | 0.615 | 0.494 | 0.559 | 0.544 | 0.435 | 0.472 | 0.426 | 0.442 | 0.326 | 0.979 | 0.97 | 0.996 | 0.958 | 0.96 |
| NCI-H1651 | 1.05 | 0.949 | 1.01 | 0.99 | 0.865 | 0.582 | 0.601 | 0.51 | 0.633 | 0.435 | 0.629 | 0.599 | 0.546 | 0.572 | 0.634 | 1.08 | 1.02 | 0.948 | 0.998 | 0.861 |
| NCI-H838 | 1.04 | 0.998 | 1.05 | 0.966 | 0.694 | 0.521 | 0.423 | 0.515 | 0.304 | 0.238 | 0.476 | 0.488 | 0.454 | 0.423 | 0.371 | 0.979 | 1.04 | 1.01 | 0.936 | 0.59 |
| NCI-H596 | 0.492 | 0.445 | 0.431 | 0.534 | 0.398 | 0.407 | 0.401 | 0.385 | 0.4 | 0.38 | 1.13 | 1.19 | 0.967 | 1.07 | 0.99 | 1.08 | 1.14 | 1.06 | 1.07 | 0.812 |
| SK-LU-1 | 1.24 | 1.07 | 1.14 | 0.927 | 0.582 | 0.562 | 0.546 | 0.637 | 0.467 | 0.434 | 0.718 | 0.623 | 0.615 | 0.552 | 0.478 | 1.29 | 0.937 | 1.14 | 1.07 | 0.639 |
| NCI-H441 | 0.75 | 0.822 | 0.73 | 0.793 | 0.496 | 0.559 | 0.381 | 0.481 | 0.459 | 0.415 | 0.284 | 0.205 | 0.242 | 0.211 | 0.279 | 0.7 | 0.454 | 0.456 | 0.565 | 0.59 |
